Experimental data as given in patent US12710366B2, “Dyes undergoing changes in color and fluorescence upon binding of organic oxo compounds” (Bundesrepublik Deutschland, vertreten durch den …, priority 2020, dated 2026).
Where “and” joins values, the source holds several entries; their conditions need not be identical. Equal values may be shown once. Entries after “also recorded” stand apart in the source; their conditions may differ.

What was measured:
[1] = Spectroscopic titration of compound 19 with ENOX-TBA in MeCN; type: binding
Description: (§1) Absorption spectra and spectrophotometric titrations were acquired with a Specord 210 Plus spectrometer (Analytik Jena), using dilute solutions with an absorbance of about 0.1 at the absorption maximum. The binding constants were assessed with BindFit v0.5 software. Fluorescence spectra and titrations were carried out on a FluoroMax 4 spectrofluorometer (Horiba Jobin-Yvon).
This example illustrates the titration of the thiourea-based compound 19 with the ammonium salt of the antibiotic enoxacin (ENOX-TBA) in MeCN. […] The bathochromic shift of the absorption band upon binding can be rationalized considering that the donor-acceptor interaction between the thiourea and benzoxadiazole is reinforced with the charge donation of the electron-rich carboxylate anion to the thiourea through such supramolecular interactions. […] The estimated binding constant for this interaction was calculated to be K19/ENOX-TBA=[…] in MeCN.

[2] = UV/vis absorption and emission spectra (Stokes shift); type: physicochemical
Description: as §1
Normalized UV/vis absorption and emission (λex=465 nm) spectra at a fixed concentration of thiourea-based compound 19 were recorded in CHCl3, toluene, acetonitrile (MeCN) and methanol (MeOH), yielding Stokes shifts between 160 nm and 230 nm, respectively. This positive solvatochromism is ascribed to the effective intramolecular charge transfer from the two electron-donating groups (thiourea and tertiary amine) to the electron-accepting benzodiazole as the solvent polarity increases (FIG. 1-4). […]
Normalized UV/vis absorption and emission spectra of guanidinium-based compound 25 at a fixed concentration were recorded in CHCl3 and MeCN. Sizable Stokes shifts of 180 nm and 210 nm were observed (FIGS. 8 and 9) as a result of the effective intramolecular charge transfer process established from the two electron-donating groups (guanidinium and tertiary amine) to the electron-accepting benzodiazole in solvents of different polarity.

[3] = Solubility in polar solvents; type: physicochemical; settings: polar organic solvents and solvent/water mixtures
[4] = Spectroscopic titration of compound 25 with TBA-OAc; type: binding; settings: for change of UV/vis absorption band upon titration with TBA-OAc / change of fluorescence emission upon titration with TBA-OAc: c[25]=9×10^−6 M
Description: as §1
The bathochromic shift of the absorption band upon binding can be rationalized considering that the donor-acceptor interaction between the guanidinium and the benzoxadiazole is reinforced by a charge donation of the electron-rich acetate anion to the guanidinium.

Row | absorption band position ([2]; in MeCN) | Stokes shift ([2]; in acetonitrile (MeCN)) | Stokes shift ([2]; in chloroform (CHCl3)) | Stokes shift ([2]; in methanol (MeOH)) | Stokes shift ([2]; in toluene) | absorption band position ([2]; CHCl3 and MeCN) | SMILES | interaction with oxoanions (e.g. ENOX-TBA) [1] | change of UV/vis absorption band upon titration with ENOX-TBA ([1]; MeCN, c[19]=2.2×10^−5 M) | solubility [3] | change of UV/vis absorption band upon titration with TBA-OAc ([4]; CHCl3) | change of fluorescence emission upon titration with TBA-OAc ([4]; CHCl3) | change of UV/vis absorption band upon titration with TBA-OAc ([4]; MeCN) | change of fluorescence emission upon titration with TBA-OAc ([4]; MeCN) | interaction with oxoanions (e.g. TBA-OAc) ([4]; non-polar and polar solvents)
1 | 462 nm | > 180 nm | > 170 nm | > 230 nm | > 160 nm | – | C=C(C)C(=O)OCCN(C)c1ccc(NC(=S)NC(=O)c2ccccc2)c2nonc12 [Compound 19] | can interact | decrease and red shift | – | – | – | – | – | –
2 | – | – | – | – | – | – | C=C(C)C(=O)OCCN(C)c1ccc(NC(=N)NC(=O)c2ccccc2)c2nonc12 [Compound 23, 2-((7-(3-benzoylguanidino)benzo[c][1,2,5]oxadiazol-4-yl)(methyl)amino)ethyl methacrylate] | – | – | soluble in polar organic solvents and polar organic solvent/water mixtures | – | – | – | – | –
3 | – | 210 nm and > 210 nm | 180 nm and > 180 nm | – | – | 450 nm | C=C(C)C(=O)OCCN(C)c1ccc(NC(=N)NC(=O)c2ccccc2)c2nonc12.Cl [Compound 25, benzamido((7-((2-(methacrycrykoyloxy)ethyl)(methyl)amino)benzo[c][1,2,5]oxadiazol-4-yl)amino)methaniminium chloride] | – | – | – | decrease and a red shift | red shift and decrease; also recorded: quenching and a red shift; also recorded: decrease and red shift | decrease and a red shift | red shift and decrease; also recorded: quenching and a red shift; also recorded: decrease and red shift | can interact
